Measurements reported in patent US20040006236A1, “Diaminopropionic acid derivatives” (priority 1999, published 2004).

Key:
[1] = tested on: Mac-1 and LFA-1-mediated neutrophil binding to immobilized ICAM-1; assay: Neutrophil (Mac-1 and LFA-1)/ICAM-1 cell-based screening assay; conditions: human neutrophils
Procedure: Both Mac-1 and LFA-1 are expressed on the cell surface of neutrophils. The ability of antagonists to inhibit Mac-1 and LFA-1-mediated neutrophil binding to immobilized ICAM-1 was quantitated by a cell based assay. Typically, fusion protein consisting of the entire extracellular domain of human ICAM-1 and the Fc domain of human IgG (5dICAM-Ig) was coated onto 96 well microtiter plates (1 μg in 100 μL TBS) overnight at 4° C. The plates were then blocked with 150 μL of 10% PVP in TBS for 1 h at 37° C. Plates were washed 3 times (150 μL each) with TBS. Human neutrophils were purified from whole blood from healthy volunteers using LSM (ICN). Cells (8×10^6/mL) were fluorescently labeled with 6-carboxyfluorescein (100 μg/mL) for 40 min in IMDM/1 mM MgCl2/1.2 mM CaCl2 as described in Example 287. Cells (8×10^6/mL) were stimulated with f-Met-Leu-Phe (10 μM) for 5 min at room temperature just prior to being used in the assay, and diluted to 2×10^6 cells/mL with RPMI/0.05% BSA/0.2 mM MnCl2. Stock solutions (10 mM) of test compounds were diluted to 2.5 mM with DMSO. A series of 1:4 dilutions in DMSO were performed to achieve a concentration range of 38.2 nM-2.5 mM. Each sample was further diluted 50-fold with RPMI/0.05% BSA/0.2 mM MnCl2. Equal volumes of labeled cells were then added to assay tubes containing diluted compound. Final concentrations of compound tested in the assay ranged from 0.38 nM-25 μM with a cell concentration of 1×10^6 per mL. Cells were incubated for 10 min at 37° C. with gentle shaking, then dispensed (100 μL per well) onto ICAM-1 coated plates and incubated for 30 min at 37° C./5% CO2. Unbound cells were washed and plates were read on a Cytofluor™ 2300 (Millipore) as described in Example 384.

C57BI/6 mice = assay: Delayed type hypersensitivity in mice (mBSA paw swelling); assay type: in vivo; conditions: compared to distilled water pumps
Procedure: Sensitization: On day 0, adult female C57BI/6 mice (20-25 g) received 50 μl each of a 1:1 mixture of 10 mg/ml methylated bovine serum albumin (mBSA) in phosphate buffered saline (PBS) and complete Freund's adjuvant (CFA) intradermally at two sites on shaved bellies (total volume 100 μl per mouse). Control mice received an equal volume of a PBS/CFA mixture (unsensitized).
Challenge: On day 7, the mice received 20 μl I of 5 mg/ml mBSA in PBS injected into the right hind paw. The contralateral left paw of each mouse was injected with an identical volume of PBS. After 24 hours, the paw swelling of both the hind feet of all mice was measured with microcalipers. To determine the paw swelling response, measurements of the left paw were subtracted from that of the right paw for each individual mouse.
At the time of challenge, anaesthetized mice were implanted on their backs with Alzet osmotic minipumps which delivered a constant volume per hour of the inhibitors (e.g. Example 226) subcutaneously. The pumps delivered a volume 200 μl over a period of 1 day. Different doses of the compounds were tested viz. 850, 250 and 85 mg/kg/day. The inhibitors were formulated in distilled water. Control mice received pumps containing distilled water. For antibody treatment groups, mice received 200 μg of anti-mouse LFA-1 (Mi7), anti-mouse Mac-1 (M1/70) or control rat IgG intraperitoneally on the day of challenge.
In table 10, the swelling response in antibody-treated animals is compared to the swelling response in rat IgG-treated animals. The swelling response in compound-treated animals is compared to the swelling-response in mice that had received pumps containing distilled water

BALB/c mice = assay: Croton oil-induced dermatitis in mice (ear swelling); assay type: in vivo; conditions: compared to distilled water pumps
Procedure: Adult female BALB/c mice (20-25 g) received 10 μl of 20 mg/ml of croton oil in 80% acetone:20% olive oil vehicle on each side of the right ear (total of 20 μl per mouse). All the mice received a similar volume of the acetone/olive oil vehicle on the contralateral left ear. Negative control mice received vehicle on both ears. Six hours thereafter, the ear swelling on both ears was measured with microcalipers. The ear swelling response was determined by subtraction of the swelling measurements of the left ear from that of the right ear for each individual mouse.
Inhibitors were administered to mice via 3 day Alzet osmotic minipumps. Pumps containing different concentrations of the inhibitors were implanted on the backs of anaesthetized mice 2 days prior to croton oil application. Additional mice received an equal volume of distilled water in pumps. For mice receiving antibodies, anti-CD18 antibody (HB226) or control rat IgG were administered i.p. at 200 μg per mouse 18 hours prior to croton oil application.
In table 11, the swelling response in antibody-treated animals is compared to the swelling response in rat IgG-treated animals. The swelling response in compound-treated animals is compared to the swelling-response in mice that had received pumps containing distilled water

IC50 [1]	Compound	other results
253 nM	O=C(CC1CCCCC1)NC[C@H](NC(=O)c1ccc(C(=O)NCc2cccc(O)c2)cc1Cl)C(=O)O [Example 78]	–
634 nM	O=C(NCc1cccc(O)c1)c1ccc(C(=O)N[C@@H](CNC(=O)c2ccc3c(c2)S(=O)(=O)c2ccccc2C3=O)C(=O)O)c(Cl)c1 [Example 192]	–
–	O=C(NC[C@H](NC(=O)c1c(F)cccc1Cl)C(=O)O)c1ccc2[nH]nnc2c1 [Example 226]	Percentage inhibition of paw swelling in response to challenge with methylated bovine serum albumin (C57BI/6 mice; 1 μM, s.c. osmotic minipump): −2%; Percentage inhibition of paw swelling in response to challenge with methylated bovine serum albumin (C57BI/6 mice; 3 μM circulating serum level (250 mg/kg/day, s.c. osmotic minipump)): 52%; Percentage inhibition of paw swelling in response to challenge with methylated bovine serum albumin (C57BI/6 mice; 9 μM circulating serum level (850 mg/kg/day, s.c. osmotic minipump)): 77%; Percentage inhibition of ear swelling in response to croton oil application (BALB/c mice; 1 μM, osmotic minipump): 8%; Percentage inhibition of ear swelling in response to croton oil application (BALB/c mice; 2 μM circulating serum level (64 mg/kg/day, osmotic minipump)): 48%; Percentage inhibition of ear swelling in response to croton oil application (BALB/c mice; 4 μM circulating serum level (250 mg/kg/day, osmotic minipump)): 62%
34 nM	O=C(NCc1cccc(O)c1)c1ccc(C(=O)N[C@@H](CNC(=O)c2cc(F)cc(F)c2)C(=O)O)c(Cl)c1 [Example 252, N-[2-chloro-4-[[[(3-hydroxyphenyl)methyl]amino]carbonyl]benzoyl]-3-(3,5-difluorobenzoyl)amino-L-alanine]	–
21 nM	O=C(NCc1cccc(O)c1)c1ccc(C(=O)N[C@@H](CNC(=O)c2ccoc2)C(=O)O)c(Cl)c1 [Example 259, N-[2-chloro-4-[[[(3-hydroxyphenyl)methyl]amino]carbonyl]benzoyl]-3-(furan-3-carbonyl)amino-L-alanine]	–
41 nM	O=C(NCc1cccc(O)c1)c1ccc(C(=O)N[C@@H](CNC(=O)c2ccccc2)C(=O)O)c(Cl)c1 [Example 302, 3-benzoylamino-N-[2-chloro-4-[[[(3-hydroxyphenyl)methyl]amino]carbonyl]benzoyl]-L-alanine]	–
16 nM	O=C(NCc1cccc(O)c1)c1ccc(C(=O)N[C@@H](CNC(=O)c2cccs2)C(=O)O)c(Cl)c1 [Example 303, N-[2-chloro-4-[[[(3-hydroxyphenyl)methyl]amino]carbonyl]benzoyl]-3-(thiophene-2-carbonyl)amino-L-alanine]	–
61 nM	Cc1cc(C(=O)NCc2cccc(O)c2)ccc1C(=O)N[C@@H](CNC(=O)c1cccs1)C(=O)O [Example 323]	–
20 nM	O=C(NCc1cccc2[nH]ncc12)c1ccc(C(=O)N[C@@H](CNC(=O)c2cccs2)C(=O)O)c(Cl)c1 [Example 327, N-[2-chloro-4-[[[(1H-indazol-4-yl)methyl]amino]carbonyl]benzoyl]-3-(thiophene-2-carbonyl)amino-L-alanine]	–
6.7 nM	Cc1cc(C(=O)NCc2cccc(O)c2)cc(C)c1C(=O)N[C@@H](CNC(=O)c1cccs1)C(=O)O [Example 330]	–
14 nM	Cc1cc(C(=O)N[C@H](C)c2cccc3ccccc23)cc(C)c1C(=O)N[C@@H](CNC(=O)c1cccs1)C(=O)O [Example 333]	–
6.1 nM	Cc1cc(C(=O)NCc2cccc(O)c2)cc(C)c1C(=O)N[C@@H](CNC(=O)c1ccsc1)C(=O)O [Example 336, N-[2,6-dimethyl-4-[[[(3-hydroxyphenyl)methyl]amino]carbonyl]benzoyl]-3-(thiophene-3-carbonyl)amino-L-alanine]	–
12 nM	Cc1cc(C(=O)NCc2cccc(O)c2)cc(C)c1C(=O)N[C@@H](CNC(=O)c1cc(F)cc(F)c1)C(=O)O [Example 337, N-[2,6-dimethyl-4-[[[(3-hydroxyphenyl)methyl]amino]carbonyl]benzoyl]-3-(3,5-difluorobenzoylamino)-L-alanine]	–
3.9 nM	Cc1cc(C(=O)NCc2cccc(O)c2)cc(Cl)c1C(=O)N[C@@H](CNC(=O)c1cccs1)C(=O)O [Example 338, N-[2-chloro-4-[[[(3-hydroxyphenyl)methyl]amino]carbonyl]-6-methylbenzoyl]-3-[(thiophene-2-carbonyl)amino]-L-alanine]	–
3 nM	Cc1cc(C(=O)NCc2cccc(O)c2)cc(Cl)c1C(=O)N[C@@H](CNC(=O)c1ccsc1)C(=O)O [Example 339, N-[2-chloro-4-[[[(3-hydroxyphenyl)methyl]amino]carbonyl]-6-methylbenzoyl]-3-[(thiophene-3-carbonyl)amino]-L-alanine]	–
4 nM	Cc1cc(C(=O)NCc2cccc(O)c2)cc(Cl)c1C(=O)N[C@@H](CNC(=O)c1cc(F)cc(F)c1)C(=O)O [Example 340, N-[2-chloro-4-[[[(3-hydroxyphenyl)methyl]amino]carbonyl]-6-methylbenzoyl]-3-[(3,5-difluorobenzoyl)amino]-L-alanine]	–
2.3 nM	O=C(NCc1cccc(O)c1)c1cc(Cl)c(C(=O)N[C@@H](CNC(=O)c2cccs2)C(=O)O)c(Cl)c1 [Example 342, N-[2,6-dichloro-4-[[[(3-hydroxyphenyl)methyl]amino]carbonyl]benzoyl]-3-[(thiophene-2-carbonyl)amino]-L-alanine]	–
1.9 nM	O=C(NCc1cccc(O)c1)c1cc(Cl)c(C(=O)N[C@@H](CNC(=O)c2ccsc2)C(=O)O)c(Cl)c1 [Example 343, N-[2,6-dichloro-4-[[[(3-hydroxyphenyl)methyl]amino]carbonyl]benzoyl]-3-[(thiophene-3-carbonyl)amino]-L-alanine]	–
1.7 nM	O=C(NCc1cccc(O)c1)c1cc(Cl)c(C(=O)N[C@@H](CNC(=O)c2cc(F)cc(F)c2)C(=O)O)c(Cl)c1 [Example 344, N-[2,6-dichloro-4-[[[(3-hydroxyphenyl)methyl]amino]carbonyl]benzoyl]-3-[(3,5-difluorobenzoyl)amino]-L-alanine]	–
0.1 nM	O=C(NCc1cccc(O)c1)c1cc(Cl)c(C(=O)N[C@@H](CNC(=O)c2cc(O)cc(O)c2)C(=O)O)c(Cl)c1 [Example 345, N-[2,6-dichloro-4-[[[(3-hydroxyphenyl)methyl]amino]carbonyl]benzoyl]-3-(3,5-dihydroxybenzoylamino)-L-alanine]	–
